Reference: patent US5310757A, “3,3,5-trimethylcyclohexyl 2-methylpropionate derivatives, their method of preparation and therapeutic compositions in which they are present” (Panmedica, priority 1989, dated 1994)

Experiments:
[1] = target: T1, 3-hydroxy-3-methylglutaryl-CoA reductase (Rattus norvegicus, UniProt P51639); test: inhibition of 3-hydroxy-3-methylglutaryl-CoA reductase activity (method of Kuroda et al.); format: biochemical; settings: concentration for 50% inhibition of 3-hydroxy-3-methylglutaryl-CoA reductase activity
T1 construct: from tissue
T1 sequence (P51639 1-887): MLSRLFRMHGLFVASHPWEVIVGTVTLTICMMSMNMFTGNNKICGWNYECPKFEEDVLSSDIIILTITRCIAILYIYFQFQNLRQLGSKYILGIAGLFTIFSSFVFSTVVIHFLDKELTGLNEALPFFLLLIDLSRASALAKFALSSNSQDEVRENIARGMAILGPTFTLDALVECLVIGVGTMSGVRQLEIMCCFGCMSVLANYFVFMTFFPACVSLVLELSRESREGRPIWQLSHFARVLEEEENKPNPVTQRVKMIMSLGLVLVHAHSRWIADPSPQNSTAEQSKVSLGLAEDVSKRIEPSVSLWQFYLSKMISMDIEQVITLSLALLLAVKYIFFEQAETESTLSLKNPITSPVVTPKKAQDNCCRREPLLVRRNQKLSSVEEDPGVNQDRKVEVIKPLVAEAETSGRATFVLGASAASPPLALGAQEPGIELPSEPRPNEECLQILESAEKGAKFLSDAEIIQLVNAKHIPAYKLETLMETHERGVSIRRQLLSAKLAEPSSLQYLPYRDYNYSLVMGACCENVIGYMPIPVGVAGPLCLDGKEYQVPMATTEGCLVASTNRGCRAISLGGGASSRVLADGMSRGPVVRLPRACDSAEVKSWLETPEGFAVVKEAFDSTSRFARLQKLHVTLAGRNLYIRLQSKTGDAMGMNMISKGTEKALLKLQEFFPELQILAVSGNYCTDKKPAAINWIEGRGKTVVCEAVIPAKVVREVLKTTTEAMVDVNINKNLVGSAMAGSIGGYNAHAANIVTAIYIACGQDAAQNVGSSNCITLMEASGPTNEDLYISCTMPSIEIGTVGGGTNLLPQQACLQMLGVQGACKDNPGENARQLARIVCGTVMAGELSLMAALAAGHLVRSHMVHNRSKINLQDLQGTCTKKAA
Experimental: The biosynthesis of cholesterol in an isolated enzymatic system or in a cell culture from organs removed from experimental animals is inhibited by limiting the activity of the enzyme 3-hydroxy-3-methylglutaryl-CoA reductase.
The inhibitory activity of the products according to the present invention was determined by the method of Kuroda et al. (Biochemica et Biophysica Acta, vol. 486, pp. 70-81 (1977)), which is a modification of the method of Shapiro et al. (Analytical Biochemistry, vol. 31, pp. 383-390 (1969)). The results are summarized in Table II, where IC50 is the concentration of product in the experimental medium which is necessary to achieve a 50% inhibition of the 3-hydroxy-3-methylglutaryl-CoA reductase activity, expressed in nanomol.

[2] = test system: hyperlipidaemia caused by TRITON 1339; test: test for the hyperlipidaemia caused by TRITON 1339; format: in vivo; settings: rats, Triton test after oral administration for six days, 0.5 millimol per kilogram; for HDL cholesterol: Control 0.7 ± 0.1, Triton 0.8 ± 0.1; for Triglycerides: Control 1 ± 0.3, Triton 10 ± 7; for Total cholesterol: Control 2 ± 0.15, Triton 9 ± 3; for Total lipids: Control 3.5 ± 0.4, Triton 20 ± 10
Experimental: The Table below summarizes the results of the pharmacological studies carried out especially by means of the test for the hyperlipidaemia caused by TRITON 1339. The experimental protocol was that published by J. C. […] et al. (Gaz. Med. France, 3rd inter. coll. 1982, Dijon, 18-22). The tests are performed on groups of 7 rats weighing from 280 to 290 g. The Triton test is carried out after oral administration for six days at a rate of 0.5 millimol per kilogram of body weight. The following lipid parameters are measured: total cholesterol, triglycerides, total lipids and HDL cholesterol.

HMG-CoA red. = HMG-CoA red. activity "ex vivo" in liver microsomes after chronic intraperitoneal administration to rats; design: Mevalonate formed: unit not given here; settings: 50 mg/kg for 6 days; for Mevalonate formed: Control 17; for % inhibition: inhibition of HMG-CoA red. activity, Control 0
Experimental: The inhibitory activity of the products according to the present invention was determined by the method of Kuroda et al. (Biochemica et Biophysica Acta, vol. 486, pp. 70-81 (1977)), which is a modification of the method of Shapiro et al. (Analytical Biochemistry, vol. 31, pp. 383-390 (1969)). […] The doses administered were 50 mg/kg for 6 days; six rats were used in each series; they are sacrificed without anaesthesia and the liver microsomes are isolated for the assay, which is performed according to the above-mentioned protocol.

Row | Compound | IC50 [1] [nM] | HDL cholesterol [2] [mmol/L] | Triglycerides [2] [mmol/L] | Total cholesterol [2] [mmol/L] | Total lipids [2] [g/L] | Mevalonate formed (HMG-CoA red.) | % inhibition (HMG-CoA red.) [%]
1 | C[C@@H]1C[C@H](OC(=O)C(C)(C)Oc2ccc(C(=O)c3ccc(Cl)cc3)cc2)CC(C)(C)C1 (relative stereo) [Example 2, (CIS) 3,3,5-TRIMETHYLCYCLOHEXYL 2-(4-(4-CHLOROBENZOYL)PHENOXY)-2-METHYLPROPIONATE] | 37.2 | 2.1 ± 0.5 | 0.5 ± 0.15 | 3.0 ± 0.4 | 3.6 ± 0.2 | 7.3 | 57
2 | Cc1ccc(C)c(OCCCC(C)(C)C(=O)O[C@H]2C[C@@H](C)CC(C)(C)C2)c1 (relative stereo) [Example 5, (CIS) 3,3,5-TRIMETHYLCYCLOHEXYL 2-(3-(2,5-DIMETHYLPHENOXY)PROPYL)-2-METHYLPROPIONATE] | 30.1 | 1.0 ± 0.3 | 2.0 ± 0.3 | 5.0 ± 0.8 | 3.0 ± 0.4 | 6.71 | 60
3 | C[C@H]1C[C@H](OC(=O)C(C)(C)Oc2ccc(-c3ccccc3)cc2)CC(C)(C)C1 (relative stereo) [Example 7, (TRANS) 3,3,5-TRIMETHYLCYCLOHEXYL 2-(4-PHENYLPHENOXY)-2-METHYLPROPIONATE] | 42.5 | 1.5 ± 0.4 | 1.1 ± 0.5 | 2.2 ± 0.4 | 3.0 ± 0.5 |  | 
